ChEMBL document CHEMBL1133823, “Antiviral drug design: computational analyses of the effects of the L100I mutation for HIV-RT on the binding of NNRTIs” (Bioorg Med Chem Lett, 2001)
“And” between values parts separate entries of the source, which are not always exact repeats. Equal values may be shown once.

How the values were obtained:
[1] = molecular target: Human immunodeficiency virus type 1 reverse transcriptase (Human immunodeficiency virus 1, UniProt Q72547, L100I); assay: Effective concentration required against L100I mutant HIV-1 reverse transcriptase
[2] = molecular target: Human immunodeficiency virus type 1 reverse transcriptase (Human immunodeficiency virus 1, UniProt Q72547); assay: Effective concentration required against wild type HIV-1 reverse transcriptase
[3] = Fold resistance (L100I/ WT) was determined
[4] = Fold resistance (L100I/ WT) (as per ref 10 in the article)
[5] = Fold resistance (L100I/ WT) (as per ref 12 in the article)
[6] = Fold resistance (L100I/ WT) (as per ref 6 in the article)
[7] = Fold resistance (L100I/ WT) (as per ref 7 in the article)
[8] = Fold resistance (L100I/ WT) (as per ref 8 in the article)

| Structure (SMILES) | EC50 [1] [nM] | EC50 [2] [nM] | FR [3] | FR [4] | FR [5] | FR [6] | FR [7] | FR [8] |
| --- | --- | --- | --- | --- | --- | --- | --- | --- |
| CC(C)=CCOc1cc(NC(=S)c2ccoc2C)ccc1Cl [UC 781] | 24 | 9 | 2.7 |  |  |  |  |  |
| O=C1Nc2ccc(Cl)cc2[C@@](C#CC2CC2)(C(F)(F)F)O1 |  |  |  | 5.9 and 8.6 |  |  |  |  |
| Cc1ccnc2c1NC(=O)c1cccnc1N2C1CC1 |  |  |  |  | 5 | 0.6 | 2.1 | 12.7 |
| CC(C)=CCN1Cc2cc(Cl)cc3[nH]c(=S)n(c23)C[C@@H]1C | 5600 | 60 | 93.3 |  |  |  |  |  |
| CCOCn1c(Cc2ccccc2)c(C(C)C)c(=O)[nH]c1=O [EMIVIRINE] | 20 | 2 | 10 |  |  |  |  |  |
